What was measured:
ciPTEC [1] = test: Intracellular platinum accumulation by AAS in ciPTECs; type: in vitro ADME, human; settings: 2 h
Method: The renal cell line ciPTEC (conditionally immortalized proximal tubule epithelial cells), which was purchased from Dr. Martijn Wilmer, was used in the current study. ciPTECs were cultured in DMEM-HAM’s F12 phenol red-free medium (Gibco, Thermo Fisher Scientific, Dreieich, Germany) supplemented with 10% fetal calf serum (FCS) (Invitrogen, Darmstadt, Germany), 5 µg/mL insulin, 5 µg/mL transferrin, 5 ng/mL selenium, 36 ng/mL hydrocortisone, 10 ng/mL EGF (epidermal growth factor) and 40 pg/mL tri-iodothyronine (Sigma-Aldrich, Steinheim, Germany). For maintaining the proliferation status, cells were cultured at 33 °C in a humidified atmosphere of 5% CO2 in medium supplemented with 1% penicillin/streptomycin (P/S) (Sigma-Aldrich, Steinheim, Germany). […]
Atomic absorption spectroscopy (AAS) was used to determine the intracellular accumulation after treatment with the platinum compounds. ciPTECs were seeded in T75 flasks and cultivated as stated before. […] Cells were then harvested via centrifugation and total cell count was determined. […] The residue was dissolved in 0.2% HNO3 and platinum amount was analyzed at a wavelength of […] in a graphite furnace using a PinAAcle 900 T (Perkin Elmer, Waltham, MA, USA). […] Intracellular accumulation was determined in three independent experiments and was calculated as ng Pt/10^6 cells.

ciPTEC [2] = test: Cytotoxicity by relative cell count (RCC); type: cell-based, human; settings: 24 h incubation; for IC50: cell count after 48 h post-cultivation; for cell number compared to the control: 48 h post-cultivation
Method: The renal cell line ciPTEC (conditionally immortalized proximal tubule epithelial cells), which was purchased from Dr. Martijn Wilmer, was used in the current study. ciPTECs were cultured in DMEM-HAM’s F12 phenol red-free medium (Gibco, Thermo Fisher Scientific, Dreieich, Germany) supplemented with 10% fetal calf serum (FCS) (Invitrogen, Darmstadt, Germany), 5 µg/mL insulin, 5 µg/mL transferrin, 5 ng/mL selenium, 36 ng/mL hydrocortisone, 10 ng/mL EGF (epidermal growth factor) and 40 pg/mL tri-iodothyronine (Sigma-Aldrich, Steinheim, Germany). For maintaining the proliferation status, cells were cultured at 33 °C in a humidified atmosphere of 5% CO2 in medium supplemented with 1% penicillin/streptomycin (P/S) (Sigma-Aldrich, Steinheim, Germany). […] For comparative analysis with the data obtained with the permanent cell line ciPTEC, studies were performed with primary patient-derived renal normal tissue cells (NT), which were obtained from patients at the University Medical Center Mainz. Cells were isolated from primary renal cancer samples of patients who underwent nephrectomy at the Department of Urology, University Medical Center Mainz. The study was performed in agreement with the Declaration of Helsinki and approved by local ethics committee (No. 837.005.09, Landesärztekammer Rheinland-Pfalz, Mainz, Germany). Each patient provided informed consent. NT cells were cultivated in RPMI-1640 medium (Sigma-Aldrich, Steinheim, Germany) containing 10% FCS and 5% P/S at 37 °C in a humidified atmosphere of 5% CO2.
Toxicity was determined by relative cell count (RCC). ciPTECs were seeded in duplicates in T25 flasks and cultivated as stated before. […] Cell count was then determined using a CASY® cell counter (CASY® TTC Cell Counter & Analyzer System). The cell counts of the treated samples were normalized to the untreated control to obtain the RCC expressed as percentage. RCC was determined in three independent experiments.

[3] = test system: organic cation transporter 2 (OCT2); set-up: method as in PMID 17582384, PMID 21144842; settings: cited from earlier work
ciPTEC [4] = test: Gene expression profiling by high-throughput RT-qPCR in ciPTECs; type: cell-based, human; settings: 24 h; for expression of genes related to transcription factors (general): PN149 20 µM, cisplatin 50 µM, oxaliplatin 150 µM; for HMOX1 gene expression: ROS-inducible gene; for IL-8 gene expression: marker for inflammation; for PMAIP1 gene expression: pro-apoptotic gene
Method: Gene expression profiles were generated using a high-throughput RT-qPCR method previously established in the institute. ciPTECs were cultivated in T25 flasks as stated before. […] RNA isolation and generation of gene expression profiles using a Fluidigm dynamic array on a BioMark™ (Rheinau, Germany) system were performed as previously described. For comparative analysis of ciPTEC with primary kidney cells, 5 × 10^5 NT cells were seeded in 10 cm dishes and cultivated for 24 h. […] Gene expression profiles in ciPTEC were generated in three independent experiments. Due to the limited amount of tissue material, gene expression analysis in primary kidney cells was performed in two independent experiments.

[5] = Anti-oxidant capacity: fluorescein consumption induced by AAPH-derived peroxyl radicals; settings: for effect on consumption of fluorescein: fluorescein 10 µM, AAPH 50 mM, phosphate buffer pH 7.4, 37 °C, cisplatin 10 µM, PN149 10, 25, 50 µM
Method: The influence of PN149 on the rates of the reaction of fluorescein with free radicals generated by the azo initiator 2,2′-azobis(2-amidinopropane) dihydrochloride (AAPH) was studied according to [35] in phosphate buffer (PB, 50 mM, pH 7.4) by measuring the decay of the probe at 494 nm with absorption spectrophotometer Specord UV–Vis equipped with a thermostated cell maintained at 37 °C. […] The lag phase of the reaction means no changes in the optical density of the reaction mixture. AAPH and fluorescein were purchased from Sigma-Aldrich, JM216 [e-ammine-d-(cyclohexylamine)-a,f-bis(acetato)-b,c-dichloroplatinum(IV)] was obtained as described in [36].

[6] = test system: testicular germ cell tumors; set-up: method as in PMID 12835671; settings: combination therapy against testicular germ cell tumors ref 2; cited from earlier work
[7] = test system: primary patient-derived renal normal tissue cells (NT); test: Gene expression profiling by high-throughput RT-qPCR in primary renal normal tissue cells; type: cell-based, human; settings: normal tissue (primary kidney cells), 20 µM cisplatin, 24 h
Method: The renal cell line […] (conditionally immortalized proximal tubule epithelial cells), which was purchased from Dr. Martijn Wilmer, was used in the current study. […] For maintaining the proliferation status, cells were cultured at 33 °C in a humidified atmosphere of 5% CO2 in medium supplemented with 1% penicillin/streptomycin (P/S) (Sigma-Aldrich, Steinheim, Germany). For the experiments, […] were seeded at a density of 55,000 cells/cm^2 in cell culture flasks and were cultivated for 24 h at 33 °C. After 24 h, cells were transferred to 37 °C for maturation, while the medium was refreshed with medium containing no P/S. Cells were kept at 37 °C for 7 days while the medium was replaced every 2-3 days. For comparative analysis with the data obtained with the permanent cell line […], studies were performed with primary patient-derived renal normal tissue cells (NT), which were obtained from patients at the University Medical Center Mainz. Cells were isolated from primary renal cancer samples of patients who underwent nephrectomy at the Department of Urology, University Medical Center Mainz. The study was performed in agreement with the Declaration of Helsinki and approved by local ethics committee (No. 837.005.09, […]-Pfalz, Mainz, Germany). Each patient provided informed consent. […]

MATE2-K = settings: cited from earlier work
ciPTECs = test system: ciPTECs; set-up: method as in PMID 26821801; settings: ciPTECs treated with cisplatin for 24 h, MTT assay ref 45; read-out: TC50 (≡ IC50); cited from earlier work
MATE1 = settings: cited from earlier work

Molecule | ng Pt/10^6 Cells (platinum accumulation) (ciPTEC [1]; 300 µM carboplatin) [ng Pt/10^6 cells] | IC50 (ciPTEC [2]) [µM] | uptake via / affinity to OCT2 [3] | NFKB2 gene expression (ciPTEC [4]) | expression of genes related to transcription factors (general) (ciPTEC [4]) | HMOX1 gene expression (ciPTEC [4]) | IL-8 gene expression (ciPTEC [4]) | PMAIP1 gene expression (ciPTEC [4]) | effect on consumption of fluorescein [5] | cell number compared to the control (ciPTEC [2]; 50 µM) | cure rates [6] | expression of DNA repair-related genes [7] | affinity for MATE2-K (MATE2-K) | IC50 (ciPTECs) [µM] | affinity for MATE1 (MATE1) | expression of DNA repair-related genes (ciPTEC [4]; 20 µM cisplatin) | kinetics of fluorescein consumption ([5]; JM216 10 M as printed, data not shown) | ng Pt/10^6 Cells (platinum accumulation) (ciPTEC [1]; 50 µM) [ng Pt/10^6 cells] | cell number compared to the control (ciPTEC [2]; concentration not stated (Figure 2A)) | HSPA1A gene expression (ciPTEC [4]; heat-shock sensitive gene)
N.N.O=C([O-])C1(C(=O)[O-])CCC1.[Pt+2] [Carboplatin] | 18 ± 2 | 175 | no affinity to this transporter | repressed transcript levels | no general down-regulation | strongly induced | repressed gene expression | strong concentration-dependent increase | – | – | – | – | – | – | – | – | – | – | – | –
N.N.[Cl][Pt][Cl] [Cisplatin] | – | 13 | – | slightly enhanced | strong down-regulation of gene transcripts | slightly lesser effects | increased transcript levels | strong concentration-dependent increase | only slightly slowed down the consumption of fluorescein | less than 10% | over 80% | reduced transcript levels | no affinity for MATE2-K | 34 | only low affinity for MATE1 | increased expression of several repair-related genes | – | – | – | –
CC(=O)[O-].CC(=O)[O-].N.NC1CCCCC1.[Cl-].[Cl-].[Pt+4] [JM216, e-ammine-d-(cyclohexylamine)-a,f-bis(acetato)-b,c-dichloroplatinum(IV)] | – | – | – | – | – | – | – | – | – | – | – | – | – | – | – | – | practically coincided with curve 2 for cisplatin | – | – | –
O=C1[O][Pt]2([NH][C@@H]3CCCC[C@H]3[NH]2)[O]C1=O [Oxaliplatin] | – | 51 | – | slightly enhanced | widespread gene repression was restricted to the highest concentration used | slightly lesser effects | increased transcript levels | strong concentration-dependent increase | – | – | – | – | – | – | substrate for both MATE1 and MATE2-K | – | – | 11 ± 2 | – | –
e-ammine-d-(3-amino-2,2,5,5-tetramethylpyrrolidine-1-oxyl)-a,f-bis(butanoato)-b,c-dichloro-platinum(IV) [PN149] | – | 6 | – | repressed transcript levels | widespread gene repression | strongly induced | repressed gene expression | peaked at 20 µM | effectively inhibited the consumption of fluorescein | – | – | – | – | – | – | – | – | – | less than 5% | strong concentration-dependent increase

Reference: article PMC8394219, “In Vitro Nephrotoxicity Studies of Established and Experimental Platinum-Based Compounds” (Biomedicines, 2021)
